Assay results as given in patent US20050065206A1, “Skin preparation comprising a tocopherol derivative for external application” (priority 2001, published 2005).

Experiments:
[1] = test system: skin removed from the back of a hairless mouse; experiment: Evaluation of skin penetrability, amount of α-tocopherol in the skin; format: in vitro ADME; conditions: 4 hours at 37° C.; for amount of α-tocopherol in the skin: 0.50 (mass %) in Dulbecco's MEM medium, HPLC, not added: 10
[2] = test system: skin removed from the back of a hairless mouse; experiment: Evaluation of skin penetrability, amount of γ-tocopherol in the skin; format: in vitro ADME; conditions: 4 hours at 37° C.; for amount of γ-tocopherol in the skin: 0.50 (mass %) in Dulbecco's MEM medium, HPLC, not added: 10
[3] = test system: keratinocytes of normal human epidermis; conditions: final concentration 1 mM, 37° C. for 2 hours; not added: lower than detection limit
Description: The cells were harvested and spalled by freeze-thawing method. To this cell spall solution, 1), 2) or 3) was added to have a final concentration of 1 mM. The resulting solution was kept at 37° C. for 2 hours and then the amount of α-tocopherol liberated in the reaction solution was measured.

amount of α-tocopherol in the skin [1] | change of the α-tocopherol amount in the treated skin ([1]; 0.50 in medium) | amount of γ-tocopherol in the skin [2] | change of the γ-tocopherol amount in the treated skin ([2]; 0.50 in medium) | amount of α-tocopherol liberated in the reaction solution [3] | Structure (SMILES)
24 nmol/g of skin | significant increase | – | – | – | Cc1c(C)c2c(c(C)c1OC(=O)CN)CCC(C)(CCCC(C)CCCC(C)CCCC(C)C)O2.Cl (stereo not shown)
– | – | 24 nmol/g of skin | significant increase | – | Cc1c(OC(=O)CN)cc2c(c1C)OC(C)(CCCC(C)CCCC(C)CCCC(C)C)CC2.Cl (stereo not shown)
11 nmol/g of skin | – | – | – | 0.5 nmol/ml of cell suspension | CC(=O)Oc1c(C)c(C)c2c(c1C)CCC(C)(CCC[C@H](C)CCC[C@H](C)CCCC(C)C)O2 (stereo partly drawn) [α-Tocopherol acetate, reference compound]
– | – | 11 nmol/g of skin | – | – | CC(=O)Oc1cc2c(c(C)c1C)OC(C)(CCCC(C)CCCC(C)CCCC(C)C)CC2 (stereo not shown) [γ-Tocopherol acetate, reference compound]
